Results from ChEMBL document CHEMBL3271996, “Potential antitumor agents. Synthesis of bifunctional alpha-methylene-gamma-butyrolactones” (J Med Chem, 1976).
In brackets after ≈: the same amount, converted by molar mass. Activity calls are given as the source filed them. The rule behind the calls is not given here.

Tests used:
L1210 [1] = experiment: Antitumor activity against mouse L1210 cells allografted in mouse at 100 to 400 mg/kg; format: functional, organism-based
[2] = (§1) Cytotoxicity against human 9KB cells; format: functional; settings: read-out: ED50 (the source's name)
L1210 [3] = experiment: Antitumor activity against mouse L1210 cells allografted in mouse; format: functional
9KB = experiment: as §1; format: functional
Rattus norvegicus [4] = organism: Rattus norvegicus; experiment: Toxicity in rat Walker 256 cells allografted rat; format: organism-based
W256 [5] = experiment: Antitumor activity against rat Walker 256 cells allografted in rat; format: functional
Rattus norvegicus [6] = experiment: Toxicity in rat Walker 256 cells allografted rat at 37.5 mg/kg; format: organism-based; set-up: dose 37.5 mg/kg; settings: in vivo
W256 [7] = experiment: Antitumor activity against rat Walker 256 cells allografted in rat assessed as inhibition of tumor growth at 18.75 mg/kg; format: functional; settings: read-out: TGI
W256 [8] = experiment: Antitumor activity against rat Walker 256 cells allografted in rat assessed as inhibition of tumor growth at 120 mg/kg; format: functional; settings: read-out: TGI
Rattus norvegicus [9] = experiment: Toxicity in rat Walker 256 cells allografted rat at 240 mg/kg; format: organism-based; set-up: dose 240 mg/kg; settings: in vivo
HeLa = experiment: Cytotoxicity against human HeLa cells at 5 ug/ml; format: functional, cell-based

Structure (SMILES) | Activity (L1210 [1]) | EC50 [2] | Activity (9KB) | further results
O=C1OCC/C1=C\OCCCO/C=C1\CCOC1=O | inactive |  |  | 
C=C1CC(CCCCCCC2CC(=C)C(=O)O2)OC1=O (stereo not given) |  | 7 µg/mL (≈ 25.1 µM) |  | Activity (L1210 [3]): inactive
O=C1OCC/C1=C\OCCO/C=C1\CCOC1=O | inactive |  | inactive | 
O=C1OCC/C1=C\OCCCCO/C=C1\CCOC1=O | inactive |  | inactive | 
C=C1CC(CCCCCC2CC(=C)C(=O)O2)OC1=O (stereo not given) |  | 15 µg/mL (≈ 56.7 µM) |  | Activity (L1210 [3]): inactive
O=C1OCC/C1=C\OCCCCCCO/C=C1\CCOC1=O | inactive |  | inactive | Activity (Rattus norvegicus [4]): Non-toxic; Activity (W256 [5]): inactive
O=C1OCC/C1=C\OC(=O)c1ccccc1 | inactive |  |  | 
O=C1OCC/C1=C\OCCCCCCCCCCO/C=C1\CCOC1=O | inactive |  |  | 
C=C1CCOC1=O [TULIPALINE A] |  | 16 µg/mL (≈ 163 µM) |  | 
C=C1CC(CCCC2CC(=C)C(=O)O2)OC1=O (stereo not given) |  | 4 µg/mL (≈ 16.9 µM) |  | Activity (L1210 [3]): inactive; Activity (Rattus norvegicus [6]): Toxic; inhibition in vivo at 18.75 mg/kg (W256 [7]): 45%
C=C1CC(CCCCC2CC(=C)C(=O)O2)OC1=O (stereo not given) |  | 32 µg/mL (≈ 128 µM) |  | Activity (L1210 [3]): inactive
Cc1ccc(S(=O)(=O)O/C=C2\CCOC2=O)cc1 | inactive |  | inactive | 
O=C(Cc1ccccc1)O/C=C1\CCOC1=O | inactive |  | inactive | 
O=C1OCC/C1=C\OCCCCCO/C=C1\CCOC1=O | inactive |  |  | 
CC1(O/C=C2\CCOC2=O)C=CC(=O)O1 (stereo not given) |  |  |  | inhibition in vivo at 120 mg/kg (W256 [8]): 27%; Activity (Rattus norvegicus [9]): Toxic; Activity (HeLa): Active
